B1: SKELETROPHIN: E3 ubiquitin ligase for Jagged2, overexpressed in DM1 myoblasts (protein, listed as Homo sapiens)
chain: MRWKCRVCLDYDLCTQCYMHNKHELAHAFDRYETAHSRPVTLSPRQGLPRIPLRGIFQGAKVVRGPDWEWGSQDGGEGKPGRVVDIRGWDVETGRSVASVTWADGTTNVYRVGHKGKVDLKCVGEAAGGFYYKDHLPRLGKPAELQRRVSADSQPFQHGDKVKCLLDTDVLREMQEGHGGWNPRMAEFIGQTGTVHRITDRGDVRVQFNHETRWTFHPGALTKALGRVGKVVKVFGDGNLRVAVAGQRWTFSPSCLVAYRPEEDANLDVAERARENKSSLSVALDKLRAQKSDPEHPGRLVVEVALGNAARALDLLRRRPEQVDTKNQGRTALQVAAYLGQVELIRLLLQARAGVDLPDDEGNTALHYAALGNQPEATRVLLSAGCRADAINSTQSTALHVAVQRGFLEVVRALCERGCDVNLPDAHSDTPLHSAISAGTGASGIVEVLTEVPNIDVTATNSQGFTLLHHASLKGHALAVRKILARARQLVDAKKEDGFTALHLAALNNHREVAQILIREGRCDVNVRNRKLQSPLHLAVQQAHVGLVPLLVDAGCSVNAEDEEGDTALHVALQRHQLLPLVADGAGGDPGPLQLLSRLQASGLPGSAELTVGAAVACFLALEGADVSYTNHRGRSPLDLAAEGRVLKALQGCAQRFRERQAGGGAAPGPRQTLGTPNTVTNLHVGAAPGPEAAECLVCSELALLVLFSPCQHRTVCEECARRMKKCIRCQVVVSKKLRPDGSEVASAAPAPGPPRQLVEELQSRYRQMEERITCPICIDSHIRLVFQCGHGACAPCGSALSACPICRQPIRDRIQIFV

Experiments:
Format in all cases: cell-based, human
DM1 myoblasts = assay: Myogenic differentiation of treated DM1 myoblasts in differentiation media (myotubes, myogenin, MyoD)
Description: The above findings supported the possibility that a significant amount of SKELETROPHIN remained bound with the mutant DMPK transcripts within DM1 nuclei, which results in diminished SKELETROPHIN activity in DM1. The attenuated SKELETROPHIN activity then manifests with an increase in JAGGED2 activity, leading to chronic activation of Notch signaling in DM1. Based on these findings we hypothesize that the activated Notch attenuates the ability of DM1 myoblasts to progress toward myogenic lineage, while facilitating their proliferation. To more critically test this idea, DMPK transcripts were targeted in DM1 myoblasts using siRNA and JAGGED2 and NOTCH1 expression was measured, in addition to an assessment of the cells' myogenic properties. DMPK transcripts were targeted to minimize interactions of SKELETROPHIN with CUG RNA, thereby increasing SKELETROPHIN activity. […] JAGGED2 and NOTCH1 levels were measured in the DMPK-siRNA-treated cells. […] In contrast, DM1 myoblasts treated with control siRNA formed fewer and shorter myotubes as well as basal myogenin expression under identical conditions.
Whether attenuating Notch signaling improves the myogenic potential of DM1 myoblasts was assessed. To achieve this goal, JAGGED2 was targeted in DM1 myoblasts with siRNA.
(§1) The above results support the idea that diminished SKELETROPHIN activity results in elevated Notch signaling and activated Notch impairs the efficacy of myoblast differentiation in DM1. To obtain more direct evidence for this interpretation, SKELETROPHIN was overexpressed in DM1 myoblasts and the Notch activity and their myogenic properties were assessed.
The progression of myogenesis was quantified by monitoring the expression of myogenic markers, myogenin and MyoD. […] In contrast, untreated DM1 myoblasts show reduced myogenin and MyoD even after prolonged incubation in differentiation media.

γ-secretase = γ-secretase activity blocked in DM1 myoblasts, NOTCH1 level; details: pharmacological inhibition of γ-secretase
Notch signaling = assay: SKELETROPHIN overexpression in DM1 myoblasts, Notch activity
Procedure: as §1

Molecule | MyoD expression (DM1 myoblasts) | formation of multinucleated myotubes (DM1 myoblasts) | myogenin expression (DM1 myoblasts) | NOTCH1 level (γ-secretase) | NOTCH1 level (Notch signaling) | Notch signaling (Notch signaling; n=4, P=0.0031)
CC(C)C[C@H](NC(=O)[C@H](Cc1ccccc1)C[C@@H](O)[C@H](Cc1ccccc1)NC(=O)OC(C)(C)C)C(=O)N[C@@H](Cc1ccccc1)C(N)=O [L-685458] | increase | higher propensity to form multi-nucleated myotubes | increase | dose-dependent reduction | – | –
B1 | – | a large number of these myoblasts differentiated | pronounced myogenin expressions | – | significant reduction | significant reduction

From patent US8771965B2, “Methods and compositions involving nucleotide repeat disorders” (The Board of Regents of the University of Texas System, priority 2006, dated 2014)
